Test results from ChEMBL document CHEMBL1201862, “PubChem BioAssay data set” (2004).
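Step 1: Grow cells in 96-well plates. Step 2: Expose to compound for 48 hours at 5 concentrations. Step 3: Interpolate endpoints linearly; if unreached, use highest concentration. At the GI50, growth is halved.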 Active and inactive are the calls of the source. Cut-off read from the data, not from the text of the source: active = GI50 up to about 1.1 µM and inactive = higher.

Tests used:
Test in all cases: NCI anticancer screen, dose series, 48 h
HT-29 = tested on: HT-29
OVCAR-5 = tested on: OVCAR-5
UACC-62 = tested on: UACC-62
SNB-78 = tested on: SNB-78
UACC-257 = tested on: UACC-257
SN12C = tested on: SN12C
SK-OV-3 = tested on: SK-OV-3
MOLT-4 = tested on: MOLT-4
LOX IMVI = tested on: LOX IMVI
NCI-H522 = tested on: NCI-H522
SF-268 = tested on: SF-268
EKVX = tested on: EKVX
OVCAR-4 = tested on: OVCAR-4
OVCAR-8 = tested on: OVCAR-8
RXF 393 = tested on: RXF 393
HOP-92 = tested on: HOP-92
M19-MEL = tested on: M19-MEL
SW-620 = tested on: SW-620
SK-MEL-28 = tested on: SK-MEL-28
U-251 = tested on: U-251
786-0 = tested on: 786-0
IGROV-1 = tested on: IGROV-1
SF-295 = tested on: SF-295
COLO 205 = tested on: COLO 205
HCT-15 = tested on: HCT-15
SK-MEL-5 = tested on: SK-MEL-5
NCI-H460 = tested on: NCI-H460
DMS-114 = tested on: DMS-114
SK-MEL-2 = tested on: SK-MEL-2
M14 = tested on: M14
ACHN = tested on: ACHN
TK-10 = tested on: TK-10
SNB-75 = tested on: SNB-75
XF498 = tested on: XF498
HOP-62 = tested on: HOP-62
HCT-116 = tested on: HCT-116
RPMI-8226 = tested on: RPMI-8226
DMS-273 = tested on: DMS-273
NCI-H23 = tested on: NCI-H23
SF-539 = tested on: SF-539
A498 = tested on: A498
SNB-19 = tested on: SNB-19
UO-31 = tested on: UO-31
HCC 2998 = tested on: HCC 2998
K562 = tested on: K562
CAKI-1 = tested on: CAKI-1
HL-60 = tested on: HL-60
KM12 = tested on: KM12
Malme-3M = tested on: Malme-3M
CCRF-CEM = tested on: CCRF-CEM
LXFL 529 = tested on: LXFL 529
A549 = tested on: A549
OVCAR-3 = tested on: OVCAR-3
DLD-1 = tested on: DLD-1
KM-20L2 = tested on: KM-20L2
SR = tested on: SR
NCI-H226 = tested on: NCI-H226

## C[Si](C)(C)C1(Sc2ccccc2)SCCCS1
HT-29
  GI50: 38.5 µM (inactive)
OVCAR-5
  GI50: > 100 µM (inactive)
UACC-62
  GI50: 35 µM (inactive)
SNB-78
  GI50: 51.8 µM (inactive)
UACC-257
  GI50: 38.7 µM (inactive)
SN12C
  GI50: 27 µM (inactive)
SK-OV-3
  GI50: > 100 µM (inactive)
MOLT-4
  GI50: 15.1 µM (inactive)
LOX IMVI
  GI50: 31.6 µM (inactive)
NCI-H522
  GI50: 17.9 µM (inactive)
SF-268
  GI50: 31.8 µM (inactive)
EKVX
  GI50: 47.9 µM (inactive)
OVCAR-4
  GI50: 57.1 µM (inactive)
OVCAR-8
  GI50: 33.8 µM (inactive)
RXF 393
  GI50: 32.5 µM (inactive)
HOP-92
  GI50: 32.8 µM (inactive)
M19-MEL
  GI50: 34 µM (inactive)
SW-620
  GI50: 53.1 µM (inactive)
SK-MEL-28
  GI50: 43.3 µM (inactive)
U-251
  GI50: 38.4 µM (inactive)
786-0
  GI50: 46.5 µM (inactive)
IGROV-1
  GI50: 41.8 µM (inactive)
SF-295
  GI50: 54.3 µM (inactive)
COLO 205
  GI50: 41.5 µM (inactive)
HCT-15
  GI50: 27.2 µM
SK-MEL-5
  GI50: 72.9 µM (inactive)
NCI-H460
  GI50: 52.8 µM (inactive)
DMS-114
  GI50: 25.8 µM (inactive)
SK-MEL-2
  GI50: 58.9 µM (inactive)
M14
  GI50: 49.8 µM (inactive)
ACHN
  GI50: 35.9 µM (inactive)
TK-10
  GI50: > 100 µM (inactive)
SNB-75
  GI50: 37.8 µM (inactive)
XF498
  GI50: 28.4 µM (inactive)
HOP-62
  GI50: 29.7 µM (inactive)
HCT-116
  GI50: 21.3 µM (inactive)
RPMI-8226
  GI50: 24.6 µM (inactive)
DMS-273
  GI50: 35.2 µM (inactive)
NCI-H23
  GI50: 31.6 µM (inactive)
SF-539
  GI50: 24.9 µM (inactive)
A498
  GI50: 40.6 µM (inactive)
SNB-19
  GI50: 36.9 µM (inactive)
UO-31
  GI50: 6.27 µM (inactive)
HCC 2998
  GI50: 31.5 µM (inactive)
K562
  GI50: 31.1 µM (inactive)
CAKI-1
  GI50: 54.6 µM (inactive)
HL-60
  GI50: 12 µM (inactive)
KM12
  GI50: 64.7 µM (inactive)
Malme-3M
  GI50: 70.6 µM (inactive)
CCRF-CEM
  GI50: 14.8 µM (inactive)
LXFL 529
  GI50: 34.4 µM (inactive)
A549
  GI50: 31.9 µM (inactive)
OVCAR-3
  GI50: 30.1 µM (inactive)
DLD-1
  GI50: 32 µM (inactive)

## CC(C#N)c1cn(S(=O)(=O)c2ccccc2)c2ccccc12 (centres undefined)
HT-29
  GI50: > 100 µM (inactive)
OVCAR-5
  GI50: > 100 µM (inactive)
UACC-62
  GI50: 55.1 µM (inactive)
UACC-257
  GI50: 31.3 µM (inactive)
MOLT-4
  GI50: 35.9 µM (inactive)
NCI-H522
  GI50: 27.7 µM (inactive)
SF-268
  GI50: 82.8 µM (inactive)
OVCAR-4
  GI50: 34 µM (inactive)
OVCAR-8
  GI50: 80.7 µM (inactive)
HOP-92
  GI50: 12.4 µM (inactive)
M19-MEL
  GI50: 42.5 µM (inactive)
SW-620
  GI50: > 100 µM (inactive)
SK-MEL-28
  GI50: 60.7 µM (inactive)
U-251
  GI50: > 100 µM (inactive)
786-0
  GI50: > 100 µM (inactive)
IGROV-1
  GI50: 78.5 µM (inactive)
SF-295
  GI50: 34.4 µM (inactive)
KM-20L2
  GI50: 67.8 µM (inactive)
COLO 205
  GI50: > 100 µM (inactive)
HCT-15
  GI50: 53.6 µM
SK-MEL-5
  GI50: 16.2 µM (inactive)
NCI-H460
  GI50: 61.7 µM (inactive)
DMS-114
  GI50: 46.5 µM (inactive)
SK-MEL-2
  GI50: 37.1 µM (inactive)
M14
  GI50: 33.7 µM (inactive)
ACHN
  GI50: 33.3 µM (inactive)
TK-10
  GI50: > 100 µM (inactive)
SNB-75
  GI50: 8.95 µM (inactive)
XF498
  GI50: > 100 µM (inactive)
HOP-62
  GI50: 37.5 µM (inactive)
HCT-116
  GI50: 40.1 µM (inactive)
RPMI-8226
  GI50: 38.5 µM (inactive)
DMS-273
  GI50: 45.6 µM (inactive)
NCI-H23
  GI50: 39.9 µM (inactive)
SR
  GI50: 30.8 µM (inactive)
SF-539
  GI50: 68.1 µM (inactive)
SNB-19
  GI50: 42.9 µM (inactive)
UO-31
  GI50: 15.8 µM (inactive)
HCC 2998
  GI50: 76.7 µM (inactive)
K562
  GI50: 39.8 µM (inactive)
CAKI-1
  GI50: 34.6 µM (inactive)
HL-60
  GI50: 26 µM (inactive)
KM12
  GI50: 72.1 µM (inactive)
Malme-3M
  GI50: 35.7 µM (inactive)
CCRF-CEM
  GI50: 48.8 µM (inactive)
LXFL 529
  GI50: 34.9 µM (inactive)
A549
  GI50: 36.5 µM (inactive)
OVCAR-3
  GI50: 53.1 µM (inactive)
NCI-H226
  GI50: 25.7 µM (inactive)
DLD-1
  GI50: 55.3 µM (inactive)
